Results on 13 compounds are retold here after ChEMBL document CHEMBL1144471, “Structure-activity relationships of 2,N(6),5'-substituted adenosine derivatives with potent activity at the A2B adenosine receptor” (J Med Chem, 2007).

For test [1], the target named is T1, Adenosine receptor A2b (Homo sapiens) (UniProt P29275).
T1 sequence (whole entry): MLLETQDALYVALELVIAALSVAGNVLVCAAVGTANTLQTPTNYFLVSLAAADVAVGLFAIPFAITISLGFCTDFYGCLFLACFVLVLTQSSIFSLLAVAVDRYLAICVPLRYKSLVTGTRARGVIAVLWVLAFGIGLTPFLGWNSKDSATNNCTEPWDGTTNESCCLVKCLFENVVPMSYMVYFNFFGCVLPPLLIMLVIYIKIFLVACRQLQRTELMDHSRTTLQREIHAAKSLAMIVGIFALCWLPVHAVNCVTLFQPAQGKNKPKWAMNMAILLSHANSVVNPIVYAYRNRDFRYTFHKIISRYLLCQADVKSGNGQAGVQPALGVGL
The test is described as follows: Agonist activity at human adenosine A2B receptor expressed in CHO cells assessed as stimulation of cAMP production at 10 uM. It counts as functional, cell-based. On the technique in general: cAMP levels reflect the balance of adenylyl cyclase and phosphodiesterase activity.

Test [2] deals with T2, Adenosine receptor A1 (Homo sapiens) (UniProt P30542).
T2 sequence (whole entry): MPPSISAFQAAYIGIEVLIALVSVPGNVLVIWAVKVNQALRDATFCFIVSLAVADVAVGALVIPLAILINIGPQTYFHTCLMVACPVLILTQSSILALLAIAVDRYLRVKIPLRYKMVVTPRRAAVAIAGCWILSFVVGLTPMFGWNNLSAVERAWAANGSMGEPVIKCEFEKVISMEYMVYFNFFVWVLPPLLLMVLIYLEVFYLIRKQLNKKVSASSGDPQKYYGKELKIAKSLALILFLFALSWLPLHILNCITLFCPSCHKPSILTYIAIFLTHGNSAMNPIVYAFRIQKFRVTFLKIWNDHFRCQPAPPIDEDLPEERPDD
The test is described as follows: Displacement of […] from human adenosine A1 receptor expressed in CHO cells at 10 uM. It counts as cell-based. On the technique in general: Displacement assays read how much labelled ligand stays bound in the presence of the test substance.

Another test addresses Adenosine receptor A2a (Homo sapiens, UniProt P29274). The test is described as follows: biochemical.
Test [3] addresses T3, Adenosine receptor A3 (Homo sapiens) (UniProt P0DMS8).
T3 sequence (whole entry): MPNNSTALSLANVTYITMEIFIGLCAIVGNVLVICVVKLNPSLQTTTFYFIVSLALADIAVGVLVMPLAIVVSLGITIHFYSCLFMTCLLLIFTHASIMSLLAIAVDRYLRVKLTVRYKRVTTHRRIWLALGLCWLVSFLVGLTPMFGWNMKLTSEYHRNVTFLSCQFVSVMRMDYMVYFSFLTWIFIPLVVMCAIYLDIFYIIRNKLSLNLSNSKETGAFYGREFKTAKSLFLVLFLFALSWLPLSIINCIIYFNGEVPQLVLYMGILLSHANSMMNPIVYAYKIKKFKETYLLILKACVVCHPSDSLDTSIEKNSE
The test is described as follows: Maximum efficacy at human recombinant adenosine A3 receptor expressed in CHO cells assessed as inhibition of cAMP production at 10 uM relative to NECA. It counts as functional, cell-based.

In the next test the target is T4, Adenosine receptor A3 (Homo sapiens, UniProt P0DMS8).
T4 sequence (P0DMS8 whole entry): T3 sequence (whole entry)
The test is described as follows: Displacement of [125I]I-AB-MECA from human adenosine A3 receptor expressed in CHO cells. It counts as cell-based.

A further test concerns the target T5, Adenosine receptor A1 (Homo sapiens, UniProt P30542).
T5 sequence (P30542 whole entry): T2 sequence (whole entry)
The test is described as follows: Displacement of […] from human adenosine A1 receptor expressed in CHO cells. In kind it is cell-based.

The next test concerns the target T6, Adenosine receptor A2b (Homo sapiens, UniProt P29275).
T6 sequence (P29275 whole entry): T1 sequence (whole entry)
The test is described as follows: Agonist activity at human adenosine A2B receptor expressed in CHO cells assessed as stimulation of cAMP production.

Sequence of Adenosine receptor A2a (P29274 whole entry): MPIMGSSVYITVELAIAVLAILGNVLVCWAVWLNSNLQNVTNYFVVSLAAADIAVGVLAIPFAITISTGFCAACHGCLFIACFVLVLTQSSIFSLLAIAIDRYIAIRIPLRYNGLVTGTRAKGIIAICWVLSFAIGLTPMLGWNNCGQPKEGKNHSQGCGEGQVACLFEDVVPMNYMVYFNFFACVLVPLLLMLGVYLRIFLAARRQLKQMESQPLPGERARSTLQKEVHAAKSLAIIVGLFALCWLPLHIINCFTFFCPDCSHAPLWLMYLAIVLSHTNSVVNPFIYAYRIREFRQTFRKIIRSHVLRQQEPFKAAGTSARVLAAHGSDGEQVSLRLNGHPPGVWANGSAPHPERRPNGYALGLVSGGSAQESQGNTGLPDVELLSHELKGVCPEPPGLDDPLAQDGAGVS
Description for Adenosine receptor A2a: Displacement of [3H]CGS-21680 from human adenosine A2A receptor expressed in CHO cells

One may read the inhibition as how much of the control response was suppressed. In general, Ki refers to the dissociation constant of the complex between target and ligand, obtained from inhibition or displacement. A low value points to higher affinity. For `Cc1ccc(S(=O)(=O)n2cc(CCOc3nc(N)c4ncn([C@@H]5O[C@H](CO)[C@@H](O)[C@H]5O)c4n3)c3ccccc32)cc1`, the Activity in test [1] was found to be 43%. The same compound showed an inhibition in test [2] of 39%. In addition, the Ki amounted to 2670 nM at Adenosine receptor A2a and 1340 nM on Adenosine receptor A3. Further, the Efficacy in test [3] came to 0%.
In general, EC50 refers to the concentration needed to bring the measured effect to its halfway point. With `COc1ccc2[nH]cc(CCOc3nc(N)c4ncn([C@@H]5O[C@H](CO)[C@@H](O)[C@H]5O)c4n3)c2c1`, the Ki worked out at 1820 nM at Adenosine receptor A1, 1400 nM at Adenosine receptor A2a and 360 nM on Adenosine receptor A3. Further, the Efficacy in test [3] is -3%. For the same compound, the EC50 on Adenosine receptor A2b is 1250 nM.
In the same order, the values of `CCNC(=O)[C@H]1O[C@@H](n2cnc3c(N)nc(OCCc4c[nH]c5ccccc45)nc32)[C@H](O)[C@@H]1O` are 190 nM, 250 nM, 110 nM, 102% and 989 nM.
As for `Nc1nc(OCCc2c[nH]c3ccccc23)nc2c1ncn2[C@@H]1O[C@H](CO)[C@@H](O)[C@H]1O`, the Ki on Adenosine receptor A1 was found to be 148 nM; on Adenosine receptor A2a it was 45 nM; on Adenosine receptor A3 it was 232 nM. In addition, in test [3], the Efficacy came to 17%. Further, at Adenosine receptor A2b, the EC50 came out at 299 nM.
Take `Nc1nc(OCCn2cnc3ccccc32)nc2c1ncn2[C@@H]1O[C@H](CO)[C@@H](O)[C@H]1O`: in test [1], the Activity was 0%. Besides, in test [2], the inhibition turned out to be 18%. The results for the Ki at Adenosine receptor A2a and on Adenosine receptor A3 were 3870 nM and 2070 nM, respectively. Moreover, in test [3], the Efficacy turned out to be 3%.
Turning to `Nc1nc(OCCc2c[nH]c3ccc(F)cc23)nc2c1ncn2[C@@H]1O[C@H](CO)[C@@H](O)[C@H]1O`, the Ki on Adenosine receptor A1 amounted to 150 nM; at Adenosine receptor A2a it was 370 nM; on Adenosine receptor A3, 490 nM. In test [3], the Efficacy was -1%. Besides, at Adenosine receptor A2b, the EC50 was 767 nM.
For the compound `Nc1nc(OCCc2cccs2)nc2c1ncn2[C@@H]1O[C@H](CO)[C@@H](O)[C@H]1O`, the Ki was 174 nM at Adenosine receptor A1, 10.9 nM at Adenosine receptor A2a and 93.3 nM on Adenosine receptor A3. Besides, the Efficacy in test [3] stood at 80%. Also, the EC50 on Adenosine receptor A2b was determined as 1780 nM.
Consider `Nc1nc(OCCc2c[nH]c3ccc(Br)cc23)nc2c1ncn2[C@@H]1O[C@H](CO)[C@@H](O)[C@H]1O`, for which the values for the Ki at Adenosine receptor A1, on Adenosine receptor A2a and at Adenosine receptor A3 were 358 nM, 502 nM and 234 nM, respectively. Besides, the Efficacy in test [3] came out at 1%. In addition, the EC50 at Adenosine receptor A2b was determined as 365 nM.
The like results for `Nc1nc(OCCc2ccccc2)nc2c1ncn2[C@@H]1O[C@H](CO)[C@@H](O)[C@H]1O` were, in that order, 221 nM, 9.3 nM, 54.2 nM, 71% and 3490 nM.
As to `Nc1nc(OCCc2c[nH]c3ccc(O)cc23)nc2c1ncn2[C@@H]1O[C@H](CO)[C@@H](O)[C@H]1O`, the Ki on Adenosine receptor A1 was 310 nM; on Adenosine receptor A2a, 450 nM; on Adenosine receptor A3, 120 nM. Further, the Efficacy in test [3] amounted to 24%. In addition, the EC50 on Adenosine receptor A2b was found to be 896 nM.
`Nc1nc(OCCc2c[nH]c3ccc(I)cc23)nc2c1ncn2[C@@H]1O[C@H](CO)[C@@H](O)[C@H]1O`: the Ki at Adenosine receptor A1 was 350 nM; at Adenosine receptor A2a it was 900 nM; on Adenosine receptor A3, 110 nM. For the same compound, the Efficacy in test [3] was -5%. For the same compound, at Adenosine receptor A2b, the EC50 came to 1870 nM.
In the same order, the values of `Nc1nc(OCCc2cc[nH]c2)nc2c1ncn2[C@@H]1O[C@H](CO)[C@@H](O)[C@H]1O` are 218 nM, 95 nM, 104 nM, 75% and 2580 nM.
In the same order, the values of `Nc1nc(OCCc2c[nH]c3ccc(Cl)cc23)nc2c1ncn2[C@@H]1O[C@H](CO)[C@@H](O)[C@H]1O` are 130 nM, 390 nM, 296 nM, -4% and 2180 nM.
